In patent US20260048138A1, “NOVEL PI3K AND/OR PIKK INHIBITORS, ANTIBODY-DRUG CONJUGATES COMPRISING THE SAME AND USES THEREOF” (HUTCHMED LIMITED, priority 2024, published 2026):
Where two headings read alike, the source gives them in different places.

B1: ADC-24 (antibody, human IgG1, kappa, V domains shown)
VH: QVQLQQPGAELVKPGASVKMSCKASGYTFTSYNMHWVKQTPGRGLEWIGAIYPGNGDTSYNQKFKGKATLTADKSSSTAYMQLSSLTSEDSAVYYCARSTYYGGDWYFNVWGAGTTVTVSA
VL: QIVLSQSPAILSASPGEKVTMTCRASSSVSYIHWFQQKPGSSPKPWIYATSNLASGVPVRFSGSGSGTSYSLTISRVEAEDAATYYCQQWTSNPPTFGGGTKLEIKR
B2: Rituximab (antibody, human IgG1, kappa, V domains shown)
VH: B1 VH
VL: B1 VL
B3: ADC-32 (antibody, human IgG1, kappa, V domains shown)
VH: QVQLVQSGAEVKKPGASVKVSCKASGYTFTDYAMHWVRQAPGQRLEWMGLISTYSGDTKYNQNFQGRVTMTVDKSASTAYMELSSLRSEDTAVYYCARGDYSGSRYWFAYWGQGTLVTVSS
VL: DIQMTQSPSSLSASVGDRVTITCQASENIYGALNWYQRKPGKSPKLLIYGASNLATGMPSRFSGSGSGTDYTFTISSLQPEDIATYYCQQVLSSPYTFGGGTKLEIKR
B4: mAb1 (antibody, human IgG1, kappa, V domains shown)
VH: B3 VH
VL: B3 VL

Legend:
[1] = biological target: T1, Human FRAP1 (mTOR) recombinant protein (Homo sapiens, UniProt P42345); assay: FRAP1 (mTOR) kinase activity, LanthaScreen TR-FRET; type: biochemical; details: 10 μM ATP, 0.4 μM GFP-4EBP1; read-out: FRAP1 (mTOR) (Enzyme, IC50)
T1 construct: GST; purchased Invitrogen PV4753
T1 sequence (P42345 1360-2549 limits assumed): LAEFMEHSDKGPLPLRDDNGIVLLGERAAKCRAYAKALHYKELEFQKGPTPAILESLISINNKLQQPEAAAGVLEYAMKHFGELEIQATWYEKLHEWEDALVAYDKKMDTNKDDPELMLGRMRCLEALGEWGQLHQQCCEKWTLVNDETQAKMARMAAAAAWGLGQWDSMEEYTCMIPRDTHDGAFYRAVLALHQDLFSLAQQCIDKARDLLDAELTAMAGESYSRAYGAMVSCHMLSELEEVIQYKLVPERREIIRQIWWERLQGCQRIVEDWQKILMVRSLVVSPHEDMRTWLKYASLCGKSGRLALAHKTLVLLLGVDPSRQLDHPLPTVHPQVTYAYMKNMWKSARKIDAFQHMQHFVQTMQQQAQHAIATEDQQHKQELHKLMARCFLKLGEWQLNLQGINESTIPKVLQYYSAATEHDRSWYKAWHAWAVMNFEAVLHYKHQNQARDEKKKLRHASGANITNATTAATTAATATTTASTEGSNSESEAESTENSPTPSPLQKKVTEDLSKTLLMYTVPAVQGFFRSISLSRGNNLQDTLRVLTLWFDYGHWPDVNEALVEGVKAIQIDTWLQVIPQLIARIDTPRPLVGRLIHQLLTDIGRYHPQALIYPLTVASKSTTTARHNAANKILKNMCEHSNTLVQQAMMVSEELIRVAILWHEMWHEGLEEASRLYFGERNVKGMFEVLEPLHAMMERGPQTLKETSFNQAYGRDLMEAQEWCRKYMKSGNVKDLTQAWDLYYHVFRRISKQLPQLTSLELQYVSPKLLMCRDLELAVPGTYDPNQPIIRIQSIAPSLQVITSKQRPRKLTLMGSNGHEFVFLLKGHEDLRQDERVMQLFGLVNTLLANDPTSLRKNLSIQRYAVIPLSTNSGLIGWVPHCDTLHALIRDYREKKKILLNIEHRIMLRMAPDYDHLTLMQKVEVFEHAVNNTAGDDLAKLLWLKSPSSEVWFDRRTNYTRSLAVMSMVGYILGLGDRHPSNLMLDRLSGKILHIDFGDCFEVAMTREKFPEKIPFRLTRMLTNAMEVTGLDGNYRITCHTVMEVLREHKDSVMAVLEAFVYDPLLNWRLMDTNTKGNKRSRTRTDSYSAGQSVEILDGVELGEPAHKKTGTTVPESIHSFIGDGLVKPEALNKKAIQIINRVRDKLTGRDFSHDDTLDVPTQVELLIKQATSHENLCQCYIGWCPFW
Procedure: Determination of FRAP1 (mTOR) Kinase Activity • Human FRAP1 (mTOR) recombinant protein (GST tag): Invitrogen, Cat. No. PV4753; • GFP-4E-BP1: Thermo Scientific, Cat. No. PV4759; • LanthaScreenTM Tb-p4E-BP1 ([…]) antibody: Thermo Scientific, Cat. No. PV4755; • TR-FRET dilution buffer: Thermo Scientific, Cat. No. PV3574; • ATP solution (10 mM): Thermo Scientific, Cat. No. PV3227; • HEPES (1 M): Gibco, Cat. No. 15630-106; • EDTA (0.5 M), pH 8.0, RNase-free: Invitrogen, Cat. No. A[…]; • Manganese chloride solution: Sigma-Aldrich, Cat. No. M1787; • EGTA: Sigma-Aldrich, Cat. No. E4378; • TWEEN®20: Sigma-Aldrich, Cat. No. P2287; • DTT: Sigma-Aldrich, Cat. No. DTT-RO; • 384-well plate: Corning, Cat. No. 3676; • 384-well plate: Corning, Cat. No. 4514; • Envision multi-mode plate reader: PerkinElmer; 4EBP1 is the substrate of mTOR, and when mTOR is activated, it will phosphorylate […] of the 4EBP1 protein. LanthaScreenTM kinase assay is used to detect the amount of phosphorylated substrate GFP-4E-BP1 produced in kinase activity experiments, thereby judging the mTOR kinase activity, and through the strength of the kinase activity, distinguishing the inhibitory effects of different compounds on the activity of FRAP1 (mTOR) kinase. […] Then, the 384-well plate was placed in a constant temperature incubator protected from light and incubated at room temperature for 1 hour. […] The 384-well plate was taken out and the plate was read using an Envision multi-mode plate reader (the excitation light wavelength was 320 nm and the emission light wavelengths were 495 nm and 520 nm). The inhibition rate was calculated using the formula as below: [formula]

DNA-PK(h) = biological target: T2, DNA-PK(h) (Homo sapiens, UniProt P78527); assay: DNA-PK(h) kinase activity, HTRF (Eurofins Cerep); type: biochemical; details: read-out: DNA-PK(h) (enzyme, IC50)
T2 construct: purchased Eurofins Cerep 14-950
Procedure: (§1) The […], ATM(h), ATR/ATRIP(h), and DNA-PK (h) were detected by HTRFR.
(§2) The calculation formula was as follows: […]
(§3) For IC50 determination, the data were analyzed using XLFit version 5.3 (ID Business Solutions).

ATM(h) = ATM(h) (Homo sapiens, UniProt Q13315); assay: ATM(h) kinase activity, HTRF (Eurofins Cerep); type: biochemical; details: read-out: ATM(h) (enzyme, IC50)
Procedure: as §1, §2, §3

ATR/ATRIP(h) = biological target: T3, ATR/ATRIP(h) (Homo sapiens, UniProt Q13535); assay: ATR/ATRIP(h) kinase activity, HTRF (Eurofins Cerep); type: biochemical; details: read-out: ATR/ATRIP(h) (enzyme, IC50)
T3 construct: purchased Eurofins Cerep 14-953
Procedure: as §1, §2, §3

[2] = biological target: T4, Human PIK3CA/PIK3R1 (p110α/p85α) recombinant protein (Homo sapiens, UniProt P42336); assay: PIK3CA/PIK3R1 (p110α/p85α) kinase activity, Transcreener ADP2 FP; type: biochemical; details: 10 μM ATP, 30 μM PIP2:PS; read-out: PIK3CA/PIK3R1 (p110α/p85α) (Enzyme, IC50)
T4 construct: His tag; purchased Invitrogen PV4788
T4 sequence (P42336 whole entry): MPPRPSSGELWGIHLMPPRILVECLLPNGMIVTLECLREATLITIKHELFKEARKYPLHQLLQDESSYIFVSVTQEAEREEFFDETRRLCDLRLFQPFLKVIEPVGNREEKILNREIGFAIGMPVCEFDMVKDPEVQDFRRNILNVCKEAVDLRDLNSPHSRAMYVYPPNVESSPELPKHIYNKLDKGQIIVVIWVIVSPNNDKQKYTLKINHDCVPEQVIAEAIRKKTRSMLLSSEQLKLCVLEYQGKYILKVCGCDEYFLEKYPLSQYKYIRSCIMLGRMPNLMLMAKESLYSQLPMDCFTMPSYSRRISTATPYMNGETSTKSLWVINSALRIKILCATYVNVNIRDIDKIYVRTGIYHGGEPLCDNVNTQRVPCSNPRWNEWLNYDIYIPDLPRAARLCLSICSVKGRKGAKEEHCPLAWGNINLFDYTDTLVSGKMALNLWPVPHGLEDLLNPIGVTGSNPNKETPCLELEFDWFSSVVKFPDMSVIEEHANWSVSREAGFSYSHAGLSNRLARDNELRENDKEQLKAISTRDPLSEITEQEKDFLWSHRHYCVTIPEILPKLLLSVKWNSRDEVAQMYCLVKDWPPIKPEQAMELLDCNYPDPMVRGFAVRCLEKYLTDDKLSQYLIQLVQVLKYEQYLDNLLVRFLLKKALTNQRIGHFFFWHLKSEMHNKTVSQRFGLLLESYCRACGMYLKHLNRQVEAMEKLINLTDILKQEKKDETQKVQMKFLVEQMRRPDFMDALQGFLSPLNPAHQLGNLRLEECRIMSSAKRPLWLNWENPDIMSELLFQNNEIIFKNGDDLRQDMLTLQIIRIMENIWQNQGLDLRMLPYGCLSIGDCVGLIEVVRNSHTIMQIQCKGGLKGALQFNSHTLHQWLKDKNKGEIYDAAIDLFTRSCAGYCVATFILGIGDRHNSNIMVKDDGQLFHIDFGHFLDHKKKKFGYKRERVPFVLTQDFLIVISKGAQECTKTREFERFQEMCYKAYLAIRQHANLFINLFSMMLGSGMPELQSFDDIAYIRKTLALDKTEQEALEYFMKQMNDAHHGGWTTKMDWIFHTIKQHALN
T4 sequence (P27986 whole entry partner): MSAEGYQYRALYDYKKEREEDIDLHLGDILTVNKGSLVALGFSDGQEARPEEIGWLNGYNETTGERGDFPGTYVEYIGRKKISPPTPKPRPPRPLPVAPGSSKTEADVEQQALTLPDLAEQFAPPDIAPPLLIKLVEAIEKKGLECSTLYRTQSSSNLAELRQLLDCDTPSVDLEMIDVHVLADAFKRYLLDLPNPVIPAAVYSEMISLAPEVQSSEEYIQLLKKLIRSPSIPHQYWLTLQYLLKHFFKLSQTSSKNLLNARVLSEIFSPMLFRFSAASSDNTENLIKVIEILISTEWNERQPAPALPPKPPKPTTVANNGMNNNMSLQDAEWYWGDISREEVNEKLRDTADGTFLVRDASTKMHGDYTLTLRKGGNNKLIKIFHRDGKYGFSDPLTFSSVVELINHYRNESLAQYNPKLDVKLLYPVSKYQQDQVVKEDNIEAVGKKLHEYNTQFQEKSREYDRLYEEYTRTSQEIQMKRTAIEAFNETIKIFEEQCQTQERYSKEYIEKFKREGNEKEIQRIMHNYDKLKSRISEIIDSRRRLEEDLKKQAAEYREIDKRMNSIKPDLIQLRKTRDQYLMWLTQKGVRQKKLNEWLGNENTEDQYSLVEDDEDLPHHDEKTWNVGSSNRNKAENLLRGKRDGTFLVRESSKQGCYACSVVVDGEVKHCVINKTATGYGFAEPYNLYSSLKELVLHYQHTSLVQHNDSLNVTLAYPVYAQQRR
Procedure: The complex formed by the binding of the ADP Alexa633 Tracer to the ADP2 antibody therein could produce fluorescence polarization. […] Assay is carried out according to the instruction of the kit. […] After that, 10 μl PIK3CA/PIK3R1 (p110α/p85α) enzyme solution was added to each well; then, 10 μl of a mixed solution of ATP and PIP2:PS lipid kinase substrate was added to each well, and the mixture was centrifuged at 1000 rpm for 60 seconds; Then, the 96-well plate was placed in a constant temperature incubator protected from light and incubated at room temperature for 1 hour. […] After the enzymatic reaction was completed, 25 μl of ADP detection mixture was added to the positive control group, 25 μl of ADP detection mixture without ADP^2 antibody was added to the negative control group, and 25 μl of ADP detection mixture without tracer-label ADP and ADP^2 antibody was added to the blank control group. Then centrifugation was performed at 1000 rpm for 60 seconds. The 96-well plate was placed in a constant temperature incubator protected from light, and incubated at room temperature for 1.5 hours. […] [formula] The inhibition rate was calculated using the formula as below: [formula]

MDA-MB-453 = assay: Inhibition of cell proliferation by payloads in vitro (CCK-8); type: cell-based; details: Homo sapiens, MDA-MB-453, 144 h, read-out: IC50, nM MDA-MB-453
Procedure: (§4) The cells were added to a 96-well plate at 1.0×10^3 cells/well and 100 μL/well and incubated in a cell culture incubator at 37° C. and 5% CO2. The test compounds were diluted with a DMEM medium containing 2% DMSO (Sigma-Aldrich, Cat. No. 34869) in a 4-fold gradient to the corresponding concentrations. […] The final concentration of DMSO was 0.2%. The cells were incubated in a cell culture incubator at 37° C. and 5% CO2 for 6 days.
(§5) After 6 days of culture, 10 μL/well of Cell Counting Kit-8 reagent (CCK-8, Dojindo, Cat. No. CK04) was added to the wells and mixed well with shaking. The cells were incubated in a cell culture incubator at 37° C. and 5% CO2 for 0.50-4.0 hours.
(§6) The OD450 optical density value was read on an EnVision™ multi-function microplate reader (PerkinElmer), and the inhibition rates (%) of the compounds were calculated. Then, the half-maximal inhibitory concentration (IC50) values were obtained using the XLfit5 software (ID Business Solutions Limited). All samples were tested in duplicate wells.
(§7) [formula] • wherein • OD450test compound represents the optical density value in the wells of the compounds to be tested; • OD450cell represents the optical density value in the wells of cell controls; • OD450background represents the optical density value in the wells of cell-free controls.

MDA-MB-468 = assay: as above; type: cell-based; details: Homo sapiens, MDA-MB-468, 144 h, read-out: IC50, nM MDA-MB-468
Procedure: as §4, §5, §6, §7

CD38 (Ramos cells) = biological target: T5, CD38 (Ramos cells) (Homo sapiens, UniProt P28907); assay: Binding of antibody or ADC to Ramos cells (CD38+) by flow cytometry; details: cell binding, MFI by flow cytometry
T5 construct: Ramos cells (ATCC, Cat. No. CRL-1596); host or cells: Ramos

CD20 [3] = biological target: T6, CD20 (UniProt P11836 1-297, limits assumed); assay: cell-based or functional assay
T6 sequence (looked up): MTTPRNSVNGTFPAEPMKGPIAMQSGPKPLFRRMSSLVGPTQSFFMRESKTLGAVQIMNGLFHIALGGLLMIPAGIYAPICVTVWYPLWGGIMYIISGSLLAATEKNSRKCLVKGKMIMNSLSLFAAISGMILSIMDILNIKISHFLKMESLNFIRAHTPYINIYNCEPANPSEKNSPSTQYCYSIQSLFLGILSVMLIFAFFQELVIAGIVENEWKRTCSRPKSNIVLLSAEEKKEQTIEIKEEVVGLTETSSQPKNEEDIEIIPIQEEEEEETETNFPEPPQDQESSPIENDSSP

CD20 [4] = biological target: T6, CD20; assay: flow cytometry on Ramos cells (CD20+)
CEACAM5/6 [5] = assay: cell-based or functional assay
CEACAM5/6 [6] = assay: flow cytometry on H2122 cells (CEACAM5/6+)
[7] = payloads, proliferation, 6 days, CCK-8

Molecule	IC50 [1] [nM]	IC50 (DNA-PK(h)) [nM]	IC50 (ATM(h)) [nM]	IC50 (ATR/ATRIP(h)) [nM]	IC50 [2] [nM]	IC50 (MDA-MB-453; [7]) [nM]	IC50 (MDA-MB-468; [7]) [nM]	further results
COc1ncc(-c2ccc3ncc4cnc(C5CC5)n4c3c2)cc1NS(=O)(=O)N1CCNCC1 [Compound 1]	3.6	0.1	0.5	9	0.5	0.23	0.39	–
COc1ncc(-c2ccc3ncc4c(c3c2)n(C2CC2)c(=O)n4C)cc1NS(=O)(=O)N1CCNCC1 [Compound 2]	6.3	0.4	1	13	0.7	–	–	IC50 (MDA-MB-453): 0.31 nM; IC50 (MDA-MB-468): 0.41 nM
COc1ncc(-c2ccc3ncc4c(c3c2)n(C(C)C)c(=O)n4C)cc1NS(=O)(=O)N1CCNCC1 [Compound 29]	1.4	0.3	0.7	20	1.4	0.056	0.078	–
COCC1(n2c(=O)n(C)c3cnc4ccc(-c5cnc(OC)c(NS(=O)(=O)N6CCNCC6)c5)cc4c32)CC1 [Compound 30]	4.6	0.6	1	36	2.3	0.41	0.64	–
daratumumab	–	–	–	–	–	–	–	EC50 (CD38 (Ramos cells)): 3.51 nM
B1	–	–	–	–	–	–	–	IC50, nM, cell proliferation, Ramos cell line (CD20^+) (CD20 [3]): 27.7 nM; EC50 (CD20 [4]): 0.457 nM
B2	–	–	–	–	–	–	–	EC50 (CD20 [4]): 0.691 nM
B3	–	–	–	–	–	–	–	IC50, nM, cell proliferation, H2122 cell line (CEACAM 5/6^+) (CEACAM5/6 [5]): 0.29 nM; EC50 (CEACAM5/6 [6]): 4.26 nM
B4	–	–	–	–	–	–	–	EC50 (CEACAM5/6 [6]): 7.94 nM
